Literature values, collected in article PMC4505863 (ACS Chemical Neuroscience, 2014).

Experiments:
mice = conditions: cited from earlier work; for doses producing the head twitch in mice: 34−36
Male C57BL/6J mice = conditions: cited from earlier work

Compound	doses producing the head twitch in mice (mice) [mg/kg]	also measured
COc1cc(CC(C)N)c(OC)cc1I (stereo not shown) [DOI, 2,5-dimethoxy-4-iodoamphetamine]	≤ 1	
CCN(CC)C(=O)[C@@H]1C=C2c3cccc4[nH]cc(c34)C[C@H]2N(C)C1 [LSD, reference compound]		ED50, HTR, automated system (Male C57BL/6J mice): 0.13 µmol/kg; ED50, head twitch, direct observation (mice): 0.14 µmol/kg
COc1cc(C[C@@H](C)N)c(OC)cc1Br [R-DOB, R-(−)-2,5-dimethoxy-4-bromoamphetamine]	≤ 1	
COc1cc(C[C@@H](C)N)c(OC)cc1C [R-DOM, R-(−)-2,5-dimethoxy-4-methylamphetamine]	≤ 1	
CN(C)CCc1c[nH]c2cccc(O)c12 [psilocin]	≤ 1	
CC(N)Cc1c[nH]c2ccccc12 (stereo not drawn) [α-methyltryptamine]		active dose range, head twitch (mice; ref 36−38): 3 to 30 mg/kg
